The assay has as its target T1, human APJ receptor (Homo sapiens, UniProt P35414).
T1 construct: expressed in transfected cells
T1 sequence (P35414 1-380): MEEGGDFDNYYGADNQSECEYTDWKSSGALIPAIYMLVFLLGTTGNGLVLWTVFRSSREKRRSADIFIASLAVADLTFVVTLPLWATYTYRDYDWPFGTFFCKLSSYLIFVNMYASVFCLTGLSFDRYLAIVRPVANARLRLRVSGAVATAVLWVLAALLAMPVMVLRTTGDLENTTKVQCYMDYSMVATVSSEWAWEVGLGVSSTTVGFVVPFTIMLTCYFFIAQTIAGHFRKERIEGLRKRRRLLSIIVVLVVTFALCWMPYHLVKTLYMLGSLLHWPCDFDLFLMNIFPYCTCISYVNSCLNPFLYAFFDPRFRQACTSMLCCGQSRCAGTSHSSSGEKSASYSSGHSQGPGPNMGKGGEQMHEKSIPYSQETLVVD
The assay is described as follows: Intracellular cAMP accumulation assay (APJ hcAMP, HTRF). Format: cell-based. The settings on record: HEK293 cells stably expressing human APJ. Here is the method: Intracellular cAMP Accumulation Assay
HEK293 cells stably expressing human APJ receptor were used to assess the activity of compounds. Cultured cells were detached and resuspended in the cAMP Homogeneous Time-Resolved Fluorescence (HTRF) assay buffer (Cisbio cat; #62AM4PEJ). […] Serial dilutions of a compound together with assay buffer containing […] and 2 μM forskolin were added to each well containing 5,000 cells and incubated for 30 minutes at room temperature. Subsequently, cAMP D2 reagent was added in the lysis buffer followed by the EuK antibody (Cisbio; cat #62AM4PEJ) and incubated for 60 min. The fluorescence emission ratio was measured using fluorometer. The intracellular cAMP concentrations (compound-stimulated inhibition of forskolin-mediated cAMP production) were calculated by extrapolation from a standard curve using known cAMP concentrations. The EC50 values were obtained by fitting the data to a sigmoidal concentration-response curve with variable slope.
The EC50 value of each compound is presented at the end of the example description.
The biological activity of the exemplified compounds of this invention determined by the assay described above is shown at the end of each example.
(cAMP levels reflect the balance of adenylyl cyclase and phosphodiesterase activity.)

The mark [1] stands for this setting: Table 2, forskolin-stimulated cAMP, read-out: APJ cAMP EC50.
[2] abbreviates: Table 1, forskolin-stimulated cAMP, read-out: APJ cAMP EC50.
Setting [3] is: Table 4, forskolin-stimulated cAMP, read-out: Human cAMP EC50.

Our source for the EC50 values is US10392347B2, “2,4-dihydroxy-nicotinamides as APJ agonists” (BRISTOL-MYERS SQUIBB COMPANY, priority 2015, dated 2019).

Read-outs that look alike come from different tables or passages of the source.

On to `CCCCc1nc(O)c(C(=O)N2CCC(c3nc(-c4cc(C)c(OC)cc4Cl)c(C)s3)C2)c(O)c1-c1c(OC)cccc1OC` (racemic) [Example 9, 6-butyl-3-{3-[4-(2-chloro-4-methoxy-5-methylphenyl)-5-methyl-1,3-thiazol-2-yl]pyrrolidine-1-carbonyl}-5-(2,6-dimethoxyphenyl)pyridine-2,4-diol], for which the EC50 under setting [1] is 0.01 to 10 nM.
Consider `CCCCc1nc(O)c(C(=O)N2CCN(Cc3ccc(F)cc3)CC2)c(O)c1-c1c(OC)cccc1OC` [Example 43, 6-butyl-5-(2,6-dimethoxyphenyl)-3-{4-[(4-fluorophenyl)methyl]piperazine-1-carbonyl}pyridine-2.4-diol], for which the EC50 under setting [2] is 0.01 to 10 nM.
Take `CCCCc1nc(O)c(C(=O)N2CCC(O)(c3ccccc3)CC2)c(O)c1-c1c(OC)cccc1OC` [Example 46, 6-butyl-5-(2,6-dimethoxyphenyl)-3-(4-hydroxy-4-phenylpiperidine-1-carbonyl)pyridine-2,4-diol]: under setting [2], the EC50 fell in the range of 10 to 100 nM.
In the case of `CCCCc1nc(O)c(C(=O)N2CCN(Cc3ncccc3F)CC2)c(O)c1-c1c(OC)cccc1OC` [Example 120, 6-butyl-5-(2,6-dimethoxyphenyl)-3-{4-[(3-fluoropyridin-2-yl)methyl]piperazine-1-carbonyl}pyridine-2,4-diol], under setting [3], the EC50 lay in the range of 0.01 to 10 nM.
For `CCCCc1nc(O)c(C(=O)N2CCN(C3CCCCC3)CC2)c(O)c1-c1c(OC)cccc1OC` [Example 63, 6-butyl-3-(4-cyclohexylpiperazine-1-carbonyl)-5-(2,6-dimethoxyphenyl)pyridine-2,4-diol], under setting [2], the EC50 was 10 to 100 nM.
Regarding `CCCCc1nc(O)c(C(=O)N2CC[C@H](OCc3ccccc3)C2)c(O)c1-c1c(OC)cccc1OC` [Example 136, 3-[(3S)-3-(benzyloxy)pyrrolidine-1-carbonyl]-6-butyl-5-(2,6-dimethoxyphenyl)pyridine-2,4-diol], the EC50 (Table 6, forskolin-stimulated cAMP, read-out: Human cAMP EC50) was 0.01 to 10 nM.
Take `CCCCc1nc(O)c(C(=O)N2CCC(c3cccc(Cl)c3)C2)c(O)c1-c1c(OC)cccc1OC` (single isomer, unassigned) [Example 38, 6-butyl-3-[3-(3-chlorophenyl)pyrrolidine-1-carbonyl]-5-(2,6-dimethoxyphenyl)pyridine-2,4-diol]: under setting [1], the EC50 is 0.01 to 10 nM.
Consider `CCCCc1nc(O)c(C(=O)N2CCC(c3ccc(F)cc3)C2)c(O)c1-c1c(OC)cccc1OC` (single isomer, unassigned) [Example 40, 6-butyl-5-(2,6-dimethoxyphenyl)-3-[3-(4-fluorophenyl)pyrrolidine-1-carbonyl]pyridine-2,4-diol], for which the EC50 under setting [1] was 0.01 to 10 nM.
As for `CCCCc1nc(O)c(C(=O)N2CCC(c3ccc(Cl)cn3)C2)c(O)c1-c1c(OC)cccc1OC` (stereo not drawn) [Example 75, 6-butyl-3-[3-(5-chloropyridin-2-yl)pyrrolidine-1-carbonyl]-5-(2,6-dimethoxyphenyl)pyridine-2,4-diol], the EC50 (Table 3, forskolin-stimulated cAMP, read-out: APJ cAMP EC50) fell in the range of 0.01 to 10 nM.
Turning to `CCCCc1nc(O)c(C(=O)N2CCN(Cc3cccc(C(F)(F)F)c3)CC2)c(O)c1-c1c(OC)cccc1OC` [Example 107, 6-butyl-5-(2,6-dimethoxyphenyl)-3-(4-{[3-(trifluoromethyl)phenyl]methyl}piperazine-1-carbonyl)pyridine-2,4-diol], the EC50 under setting [3] was 100 to 300 nM.
For the setting “APJ cAMP EC50 (nM), Table 1, forskolin-stimulated cAMP”, `CCCCc1[nH]c(=O)c(C(=O)N(CCC)Cc2ccccc2)c(O)c1-c1c(OC)cccc1OC` [Example 33, N-benzyl-6-butyl-5-(2,6-dimethoxyphenyl)-2,4-dihydroxy-N-propylpyridine-3-carboxamide] yielded an EC50 of 100 to 300 nM.
Take `CCNCc1nc(O)c(C(=O)N2CCC(c3cccc(F)c3)C2)c(O)c1-c1c(OC)cccc1OC` (single isomer, unassigned) [Example 149, 5-(2,6-dimethoxyphenyl)-6-[(ethylamino)methyl]-3-[3-(3-fluorophenyl)pyrrolidine-1-carbonyl]pyridine-2,4-diol]: where the note is “read-out: Human cAMP Potency range”, the EC50 was in the range of 100 to 300 nM.
